According to US4740233A, “Substituted 1,2,4-triazolo[1,5-a]-pyrimidine-2-sulfonamides and compositions and methods of controlling undesired vegetation and suppressing the nitrification of ammonium nitrogen in soil” (The Dow Chemical Company, priority 1986, dated 1988):

Experiments:
[1] = system: johnson grass; assay: Postemergent control of plant species; type: in vivo, Sorghum halepense; settings: Sorghum halepense, post-emergence, 336 h, read-out: percent postemergent control
Description: (§1) In representative operations, each compound to be utilized in a series of tests is dissolved in acetone to one-half of the final volume (twice the final concentration) to be used and the acetone solution in each case is admixed with an equal volume of water containing 0.1 percent by weight of surface active material. The compositions, generally in the nature of an emulsion, were employed to spray separate respective plant species which had been grown to a 2-4 leaf stage in soil of good nutrient content in a greenhouse. The various beds were positioned side by side and exposed to substantially identical conditions of temperature and light. Each bed was maintained so as to prevent any interaction with test compounds in different seed beds. Other plants were left untreated to serve as controls. After treatment, the plants were maintained for about two weeks under greenhouse conditions conducive for good plant growth and watered as necessary. Control refers to the reduction in growth compared to the observed results of the same untreated species.

[2] = system: corn; assay: Postemergent control of plant species; type: in vivo, Zea mays; settings: Zea mays, post-emergence, 336 h, read-out: percent postemergent control
Description: as §1

[3] = system: wheat; assay: Postemergent control of plant species; type: in vivo, Triticum aestivum; settings: Triticum aestivum, post-emergence, 336 h, read-out: percent postemergent control
Description: as §1

[4] = system: sugar beet; assay: Postemergent control of plant species; type: in vivo, Beta saccharifera; settings: Beta vulgaris, post-emergence, 336 h, read-out: percent postemergent control
Description: as §1

[5] = system: yellow foxtail; assay: Postemergent control of plant species; type: in vivo, Setaria lutescens; settings: Setaria, post-emergence, 336 h, read-out: percent postemergent control
Description: as §1

[6] = system: velvetleaf; assay: Postemergent control of plant species; type: in vivo, Abutilon theophrasti; settings: Abutilon theophrasti, post-emergence, 336 h, read-out: percent postemergent control
Description: as §1

[7] = system: jimsonweed; assay: Postemergent control of plant species; type: in vivo, Datura stramonium; settings: Datura stramonium, post-emergence, 336 h, read-out: percent postemergent control
Description: as §1

[8] = system: pigweed; assay: Postemergent control of plant species; type: in vivo, Amaranthus spp.; settings: Amaranthus retroflexus, post-emergence, 336 h, read-out: percent postemergent control
Description: as §1

[9] = system: crabgrass; assay: Postemergent control of plant species; type: in vivo, Digitaria spp.; settings: Digitaria sanguinalis, post-emergence, 336 h, read-out: percent postemergent control
Description: as §1

[10] = system: barnyardgrass; assay: Postemergent control of plant species; type: in vivo, Echinochloa crusgalli; settings: Echinochloa crus-galli, post-emergence, 336 h, read-out: percent postemergent control
Description: as §1

[11] = system: wild oats; assay: Postemergent control of plant species; type: in vivo, Avena fatua; settings: Avena fatua, post-emergence, 336 h, read-out: percent postemergent control
Description: as §1

[12] = system: annual morning glory; assay: Postemergent control of plant species; type: in vivo, Ipomoea spp.; settings: Ipomoea, post-emergence, 336 h, read-out: percent postemergent control
Description: as §1

[13] = system: yellow nutsedge; assay: Postemergent control of plant species; type: in vivo, Cyperus esculentus; settings: Cyperus, post-emergence, 336 h, read-out: percent postemergent control
Description: as §1

[14] = system: soybean; assay: Postemergent control of plant species; type: in vivo, Glycine max.; settings: Glycine max, post-emergence, 336 h, read-out: percent postemergent control
Description: as §1

[15] = system: cotton; assay: Postemergent control of plant species; type: in vivo, Gossypium spp.; settings: Gossypium hirsutum, post-emergence, 336 h, read-out: percent postemergent control
Description: as §1

[16] = system: rape; assay: Postemergent control of plant species; type: in vivo, Brassica napus; settings: Brassica napus, post-emergence, 336 h, read-out: percent postemergent control
Description: as §1

[17] = system: rice; assay: Postemergent control of plant species; type: in vivo, Oryza sativa; settings: Oryza sativa, post-emergence, 336 h, read-out: percent postemergent control
Description: as §1

[18] = system: sorghum; assay: Postemergent control of plant species; type: in vivo, Sorghum vulgare; settings: Sorghum, post-emergence, 336 h, read-out: percent postemergent control
Description: as §1

[19] = system: corn; assay: Preemergent control of plant species; type: in vivo, Zea mays; settings: Zea mays, pre-emergence, 336 h; 0.25 lb/acre; read-out: percent preemergent control
Procedure, shortened: (§2)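 Seeds sown in agricultural soil beds in a greenhouse received aqueous emulsions of test compositions applied uniformly over the bed surface at the listed rates; water-treated beds served as control. After two weeks under greenhouse growth conditions, control was scored as growth reduction versus untreated plants of the same species.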

[20] = system: cotton; assay: Preemergent control of plant species; type: in vivo, Gossypium spp.; settings: Gossypium hirsutum, pre-emergence, 336 h; 0.25 lb/acre; read-out: percent preemergent control
Procedure, shortened: as §2

[21] = system: rape; assay: Preemergent control of plant species; type: in vivo, Brassica napus; settings: Brassica napus, pre-emergence, 336 h; 0.25 lb/acre; read-out: percent preemergent control
Procedure, shortened: as §2

[22] = system: wild oats; assay: Preemergent control of plant species; type: in vivo; settings: Avena fatua, pre-emergence, 336 h; 0.25 lb/acre; read-out: percent preemergent control
Procedure, shortened: as §2

[23] = system: soybean; assay: Preemergent control of plant species; type: in vivo, Glycine max.; settings: Glycine max, pre-emergence, 336 h; 0.25 lb/acre; read-out: percent preemergent control
Procedure, shortened: as §2

[24] = system: barnyardgrass; assay: Preemergent control of plant species; type: in vivo, Echinochloa crusgalli; settings: Echinochloa crus-galli, pre-emergence, 336 h; 0.25 lb/acre; read-out: percent preemergent control
Procedure, shortened: as §2

[25] = system: velvetleaf; assay: Preemergent control of plant species; type: in vivo, Abutilon theophrasti; settings: Abutilon theophrasti, pre-emergence, 336 h; 0.25 lb/acre; read-out: percent preemergent control
Procedure, shortened: as §2

[26] = system: yellow nutsedge; assay: Preemergent control of plant species; type: in vivo, Cyperus esculentus; settings: Cyperus, pre-emergence, 336 h; 0.25 lb/acre; read-out: percent preemergent control
Procedure, shortened: as §2

[27] = system: yellow foxtail; assay: Preemergent control of plant species; type: in vivo, Setaria lutescens; settings: Setaria, pre-emergence, 336 h; 0.25 lb/acre; read-out: percent preemergent control
Procedure, shortened: as §2

[28] = system: johnson grass; assay: Preemergent control of plant species; type: in vivo, Sorghum halepense; settings: Sorghum halepense, pre-emergence, 336 h; 0.25 lb/acre; read-out: percent preemergent control
Procedure, shortened: as §2

[29] = system: annual morning glory; assay: Preemergent control of plant species; type: in vivo, Ipomoea spp.; settings: Ipomoea, pre-emergence, 336 h; 0.25 lb/acre; read-out: percent preemergent control
Procedure, shortened: as §2

[30] = system: jimsonweed; assay: Preemergent control of plant species; type: in vivo, Datura stramonium; settings: Datura stramonium, pre-emergence, 336 h; 0.25 lb/acre; read-out: percent preemergent control
Procedure, shortened: as §2

[31] = system: nitrification of ammonium nitrogen; assay: Suppression of nitrification of ammonium nitrogen in soil; settings: 27° C.
Procedure, shortened: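 Value is % NH4-N remaining after a two-week, 27° C incubation of treated soil held at 1/3 bar tension moisture. Nitrate was measured with an ion-selective electrode after extraction with ammonium sulfate solution and 10 min shaking.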

[32] = system: sugar beet; assay: Preemergent control of plant species; type: in vivo, Beta saccharifera; settings: Beta vulgaris, pre-emergence, 336 h; 0.25 lb/acre; read-out: percent preemergent control
Procedure, shortened: as §2

[33] = system: sorghum; assay: Preemergent control of plant species; type: in vivo, Sorghum vulgare; settings: Sorghum, pre-emergence, 336 h; 0.25 lb/acre; read-out: percent preemergent control
Procedure, shortened: as §2

[34] = system: rice; assay: Preemergent control of plant species; type: in vivo, Oryza sativa; settings: Oryza sativa, pre-emergence, 336 h; 0.25 lb/acre; read-out: percent preemergent control
Procedure, shortened: as §2

[35] = system: wheat; assay: Preemergent control of plant species; type: in vivo, Triticum aestivum; settings: Triticum aestivum, pre-emergence, 336 h; 0.25 lb/acre; read-out: percent preemergent control
Procedure, shortened: as §2

Compound	plant injury at 280.212 g/ha [19] [%]	plant injury at 280.212 g/ha [20] [%]	plant injury at 280.212 g/ha [21] [%]	pest or weed control at 280.212 g/ha [22] [%]	plant injury at 280.212 g/ha [23] [%]	pest or weed control at 280.212 g/ha [24] [%]	pest or weed control at 280.212 g/ha [25] [%]	pest or weed control at 280.212 g/ha [26] [%]	pest or weed control at 280.212 g/ha [27] [%]	pest or weed control at 280.212 g/ha [28] [%]	pest or weed control at 280.212 g/ha [29] [%]	pest or weed control at 280.212 g/ha [30] [%]	% NH4-N Remaining After 2 Weeks Incubation ([31]; 0.06 ppm) [%]	% NH4-N Remaining After 2 Weeks Incubation ([31]; 0.25 ppm) [%]	% NH4-N Remaining After 2 Weeks Incubation ([31]; 1 ppm) [%]	% NH4-N Remaining After 2 Weeks Incubation ([31]; 4 ppm) [%]	plant injury at 280.212 g/ha [32] [%]	plant injury at 280.212 g/ha [33] [%]	plant injury at 280.212 g/ha [34] [%]	plant injury at 280.212 g/ha [35] [%]	other results
CSc1cccc(Cl)c1NS(=O)(=O)c1nc2nc(C)cc(C)n2n1 [Compound 69]	–	–	–	–	–	–	–	–	–	–	–	–	–	–	–	–	–	–	–	–	pest or weed control at 500 ppm [1]: 95%; plant injury at 500 ppm [2]: 90%; plant injury at 500 ppm [3]: 0%; plant injury at 500 ppm [4]: 100%; pest or weed control at 500 ppm [5]: 90%; pest or weed control at 500 ppm [6]: 85%; pest or weed control at 500 ppm [7]: 90%; pest or weed control at 500 ppm [8]: 100%; pest or weed control at 500 ppm [9]: 80%; pest or weed control at 500 ppm [10]: 80%; pest or weed control at 500 ppm [11]: 0%; pest or weed control at 500 ppm [12]: 80%; pest or weed control at 500 ppm [13]: 80%; plant injury at 500 ppm [14]: 40%; plant injury at 500 ppm [15]: 90%; plant injury at 500 ppm [16]: 90%; plant injury at 500 ppm [17]: 0%; plant injury at 500 ppm [18]: 80%
C=CCOC(=O)c1cccc(C)c1NS(=O)(=O)c1nc2nc(C)cc(C)n2n1 [Compound 76]	100	60	100	90	95	70	100	100	90	80	90	100	34	52	74	86	100	90	70	100	–
CC(C)=NOC(=O)c1cccc(C)c1NS(=O)(=O)c1nc2nc(C)cc(C)n2n1 [Compound 78]	10	0	100	30	30	20	30	50	20	0	0	0	74	32	53	72	70	0	40	40	–
